This is an account of results in patent EP3917907B1, “MODULATORS OF POTASSIUM ION CHANNELS AND USES THEREOF” (Universitá Degli Studi Di Salerno, priority 2019, dated 2020).

A short description of data set [1]: Solution stability (HPLC, extracellular solution, ambient temperature). The format is physicochemical. The settings on record: percentage of degradation after 6 h at ambient temperature; 100 ppm in extracellular solution pH 7.4. Summed up: (§1)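 Analyte diluted from 1 mg/mL DMSO stock to 100 ppm in extracellular buffer (NaCl, CaCl2, KCl, MgCl2, glucose, HEPES, pH 7.4) and either kept at ambient temperature or irradiated with a solar simulator, each for 6 h. C18 RP-HPLC (40°C) peak areas at 0 and 6 h give % degradation = (Pa0−Pa6)/Pa0 ×100.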

The next data set addresses T1, Kv7.2/7.3 (Homo sapiens, UniProt O43525+O43526).
T1 construct: expressed in transfected cells; host or cells: CHO cells (ATCC CRL-9618), transient co-transfection, pcDNA3.1(+)
In words: Whole-cell patch-clamp on CHO cells co-expressing Kv7.2 and Kv7.3. In kind it is cell-based. The settings on record: for EC50: Kv7.2/7.3, shift in ramp-voltage (ΔV) at 20% of maximal current, 0.01-10 µM; for potency relative to retigabine in increasing Kv7.2/3 currents: from EC50 values of Table 2. How it is done: (§2) According to the experimental protocol, these plasmids were expressed individually or in combination (in particular of Kv7.2 and Kv7.3), together with a plasmid-expressing enhanced green fluorescent protein (Clontech, Palo Alto, CA) used as a transfection marker. Total cDNA in the transfection mixture was kept at 4 µg. CHO cells were grown in 100-mm plastic Petri dishes in Dulbecco's modified Eagle's medium containing 10% fetal bovine serum, nonessential amino acids (0.1 mM), penicillin (50 U/ml), and streptomycin ([…]) in a humidified atmosphere at 37°C with 5% CO2. The cells were plated on glass coverslips coated with poly-L-lysine, and transfected one day after plating with the appropriate cDNA using Lipofectamine 2000 (Life Technologies), according to the manufacturer's protocol.
(§3) Currents from CHO cells were recorded at room temperature (20-22°C) 24 hours after trasfection using the whole-cell configuration of the patch-clamp technique, with glass micropipettes of 3-5 MΩ resistance. During the recording, constant perfusion of extracellular solution was maintained. The extracellular solution contained (in mM): 138 NaCl, 2 CaCl2, 5.4 KCl, 1 MgCl2, 10 glucose, and 10 HEPES, at pH 7.4, adjusted with NaOH. The pipette (intracellular) solution contained (in mM): 140 KCl, 2 MgCl2, 10 EGTA, 10 HEPES, 5 Mg^2+-ATP, at pH 7.3-7.4, adjusted with KOH. Currents were recorded using an Axopatch-200A amplifier, filtered at 5 kHz, and digitized using a DigiData 1440A (Molecular Devices). The pCLAMP software (version 10.2, Molecular Devices) was used for data acquisition and analysis. To evaluate the activity of exemplary compounds on Kv7.2 (see Table 1), as well as on Kv7.1, Kv7.2/7.3, Kv7.3 and Kv7.4 channels for selected compounds (see Table 2), the cells were clamped at -80 mV and currents were elicited by 3-s voltage ramps from -80 mV to +20 mV in the presence and absence of each compound. […] The effects of drugs were expressed as shift in the ramp-voltage (ΔV) calculated at 20% of the maximal current (Miceli et al, Proc Natl Acad Sci U S A. 2013, 110(11):4386-91). Curves were fitted using the following equation: y=max/(1+x/EC50)n, where x is the drug concentration, n is the Hill coefficient and max is the maximal value achieved, as previously described (Ambrosino et al, Br J Pharmacol. 2013, 168(6):1430-1444). Data analysis and fit were performed using Sigmaplot (version 12.3).

Data set [2] is described as follows: Photostability (HPLC, solar simulator irradiation). The format is physicochemical. The note with it: for Photostability: percentage of degradation after 6 h irradiation with solar simulator, 100 ppm in extracellular solution pH 7.4. In short, it runs like this:
as §1

For another data set, the target named is T2, Kv7.4 (Homo sapiens, UniProt P56696).
T2 construct: expressed in transfected cells; host or cells: CHO cells (ATCC CRL-9618), transient transfection, pcDNA3.1(+)
Nature of the data set: Whole-cell patch-clamp on CHO cells transiently expressing Kv7.4. The format is cell-based. The settings on record: shift in ramp-voltage (ΔV) at 20% of maximal current, 0.01-10 µM. How it is done:
as §2
(§4) Currents from CHO cells were recorded at room temperature (20-22°C) 24 hours after trasfection using the whole-cell configuration of the patch-clamp technique, with glass micropipettes of 3-5 MΩ resistance. During the recording, constant perfusion of extracellular solution was maintained. […] Currents were recorded using an Axopatch-200A amplifier, filtered at 5 kHz, and digitized using a DigiData 1440A (Molecular Devices). […] The effects of drugs were expressed as shift in the ramp-voltage (ΔV) calculated at 20% of the maximal current (Miceli et al, Proc Natl Acad Sci U S A. 2013, 110(11):4386-91). […]

The target in data set [3] is T3, Kv7.2 (Homo sapiens, UniProt O43526).
T3 construct: expressed in transfected cells; host or cells: CHO cells (ATCC CRL-9618), transient transfection, pcDNA3.1(+)
Nature of the data set: Whole-cell patch-clamp on CHO cells transiently expressing Kv7.2. The format is cell-based. The note with it: for EC50: Kv7.2, shift in ramp-voltage (ΔV) at 20% of maximal current, 0.01-10 µM; for Idrug/Ictl at 0 mV: ratio of ramp-evoked Kv7.2 current amplitude in presence and absence of drug at 0 mV; for Idrug/Ictl at 0 mV / Idrug/Ictl at -40 mV: CHO cells, mean±SEM, >1 activating, <1 inhibiting; for Idrug/Ictl at -40 mV: ratio of ramp-evoked Kv7.2 current amplitude in presence and absence of drug at -40 mV.

The subject of data set [4] is Kv7.2. The data set is described as above. The format is cell-based, human. The note with it: ratio of EC50 values Kv7.3/Kv7.2.
The target in the next data set is T4, Kv7.2 W236L (Homo sapiens, UniProt O43526, W236L).
T4 construct: expressed in transfected cells; host or cells: CHO cells (ATCC CRL-9618), transient transfection, pcDNA3.1(+)
Nature of the data set: Whole-cell patch-clamp on CHO cells expressing Kv7.2 W236L mutant channels. The format is cell-based. The note with it: 10 µM. How it is done: as §2, §4

For the next data set, the target named is T5, Kv7.1 (Homo sapiens, UniProt P51787).
T5 construct: expressed in transfected cells; host or cells: CHO cells (ATCC CRL-9618), transient transfection, pcDNA3.1(+)
Nature of the data set: Whole-cell patch-clamp on CHO cells transiently expressing Kv7.1. The format is cell-based. The settings on record: shift in ramp-voltage (ΔV) at 20% of maximal current, 0.01-10 µM. As to the method: as §2
as §3, with “Curves were fitted using the following equation: y=max/(1+x/EC50)n, where x is the drug concentration, n is the Hill coefficient and max is the maximal value achieved, as previously described (Ambrosino et al, Br J Pharmacol. 2013, 168(6):1430-1444). Data analysis and fit were performed using Sigmaplot (version 12.3).” left out

Another data set has as its target T6, Kv7.3 (Homo sapiens, UniProt O43525).
T6 construct: expressed in transfected cells; host or cells: CHO cells (ATCC CRL-9618), transient transfection, pcDNA3.1(+)
In words: Whole-cell patch-clamp on CHO cells transiently expressing Kv7.3. In kind it is cell-based. The settings on record: shift in ramp-voltage (ΔV) at 20% of maximal current, 0.01-10 µM. How it is done:
as §2, §4

For data set [5] the following is noted: cited from earlier work.

`CCCCCCC(=O)Nc1ccc2c(ccn2Cc2ccc(C(F)(F)F)cc2)c1` [N-(1-(4-(trifluoromethyl)benzyl)-1H-indol-5-yl)heptanamide]: the Solution stability result in data set [1] is recorded as “A (degradation lower than 20%)”. Besides, the EC50 was 210 ± 140 nM at Kv7.2/7.3; 100 ± 20 nM at Kv7.4; 80 ± 40 nM on Kv7.2 [3]; “Inactive” at Kv7.1; 10500 ± 6000 nM at Kv7.3. For the same compound, the “potency relative to retigabine in increasing Kv7.2/3 currents” value on Kv7.2/7.3 is recorded as “eight times more potent than retigabine”. Moreover, the Photostability result in data set [2] is recorded as “A (degradation lower than 20%)”. The “Idrug/Ictl at 0 mV” value on Kv7.2 [3] was determined as 3.24±0.18. Besides, the “Idrug/Ictl at -40 mV” value on Kv7.2 [3] was found to be 9.34±0.82. Further, the “potency in activating Kv7.2 compared to Kv7.3 homomers” value in the data set on Kv7.2 [4] was “about 130 fold”. At Kv7.2 W236L, the “ratio between current amplitude in the presence and absence of the drug at -40 mV” value was determined as 1.3±0.3.
As to `CCCCCCC(=O)Nc1ccc(NCc2ccc(C(F)(F)F)cc2)cc1N` [N-(2-amino-4-((4-(trifluoromethyl)benzyl)amino)phenyl)heptanamide], the Solution stability entry in data set [1] is “A (degradation lower than 20%)”. At Kv7.2/7.3, the EC50 is 200 ± 100 nM and the “potency relative to retigabine in increasing Kv7.2/3 currents” value is listed as “eight times more potent than retigabine”. Besides, the Photostability result in [2] was “B (20%< degradation<40%)”. Also, at Kv7.2 [3], the “Idrug/Ictl at 0 mV” value is 2.55±0.56 and the “Idrug/Ictl at -40 mV” value is recorded as 16.90±3.33. For the same compound, the EC50 entry on Kv7.1 is reported as “Inactive”.
For `CCOC(=O)Nc1ccc(NCc2ccc(F)cc2)cc1N` [Retigabine, reference compound], the Solution stability entry in data set [1] was “A (degradation lower than 20%)”. In addition, the EC50 at Kv7.2/7.3 was 1720 ± 410 nM; at Kv7.4 it was 1980 ± 840 nM; on Kv7.2 [3], 930 ± 430 nM; at Kv7.1, “Inactive”; at Kv7.3, 3900 ± 1700 nM. Further, the “drug degraded after exposure to light” value in data set [2] (after 6 hours of exposure to light) is on record as above 40%. The Photostability result in [2] is listed as “C (degradation > 40%)”. Besides, in [5], the “fast absorption after oral administration (time after administration)” value is 1.5 to 2.0 h. Also, the “Idrug/Ictl at 0 mV” value on Kv7.2 [3] stood at 1.95±0.12. Also, the “Idrug/Ictl at -40 mV” value on Kv7.2 [3] came to 6.20±1.03. Besides, the “potency in activating Kv7.2 compared to Kv7.3 homomers” value in the data set with Kv7.2 [4] is given as 4 fold. The “ratio between current amplitude in the presence and absence of the drug at -40 mV” value on Kv7.2 W236L is given as 1.2±0.1.
